The record followed here is ChEMBL document CHEMBL4725253, “Discovery of quinoline-based irreversible BTK inhibitors” (Bioorg Med Chem Lett, 2020).

The nature of series [1]: Inhibition of goat anti-human IgM F(ab')-stimulated CD69 cell surface expression in human PBMC preincubated for 2 hrs followed by anti-human IgM stimulation for 18 hrs by flow cytometric analysis. Format: functional, tissue-based. For orientation: A flow cytometer gives signals particle by particle.
The target of series [2] is T1, Tyrosine-protein kinase JAK3 (Homo sapiens, UniProt P52333).
T1 sequence (P52333 whole entry): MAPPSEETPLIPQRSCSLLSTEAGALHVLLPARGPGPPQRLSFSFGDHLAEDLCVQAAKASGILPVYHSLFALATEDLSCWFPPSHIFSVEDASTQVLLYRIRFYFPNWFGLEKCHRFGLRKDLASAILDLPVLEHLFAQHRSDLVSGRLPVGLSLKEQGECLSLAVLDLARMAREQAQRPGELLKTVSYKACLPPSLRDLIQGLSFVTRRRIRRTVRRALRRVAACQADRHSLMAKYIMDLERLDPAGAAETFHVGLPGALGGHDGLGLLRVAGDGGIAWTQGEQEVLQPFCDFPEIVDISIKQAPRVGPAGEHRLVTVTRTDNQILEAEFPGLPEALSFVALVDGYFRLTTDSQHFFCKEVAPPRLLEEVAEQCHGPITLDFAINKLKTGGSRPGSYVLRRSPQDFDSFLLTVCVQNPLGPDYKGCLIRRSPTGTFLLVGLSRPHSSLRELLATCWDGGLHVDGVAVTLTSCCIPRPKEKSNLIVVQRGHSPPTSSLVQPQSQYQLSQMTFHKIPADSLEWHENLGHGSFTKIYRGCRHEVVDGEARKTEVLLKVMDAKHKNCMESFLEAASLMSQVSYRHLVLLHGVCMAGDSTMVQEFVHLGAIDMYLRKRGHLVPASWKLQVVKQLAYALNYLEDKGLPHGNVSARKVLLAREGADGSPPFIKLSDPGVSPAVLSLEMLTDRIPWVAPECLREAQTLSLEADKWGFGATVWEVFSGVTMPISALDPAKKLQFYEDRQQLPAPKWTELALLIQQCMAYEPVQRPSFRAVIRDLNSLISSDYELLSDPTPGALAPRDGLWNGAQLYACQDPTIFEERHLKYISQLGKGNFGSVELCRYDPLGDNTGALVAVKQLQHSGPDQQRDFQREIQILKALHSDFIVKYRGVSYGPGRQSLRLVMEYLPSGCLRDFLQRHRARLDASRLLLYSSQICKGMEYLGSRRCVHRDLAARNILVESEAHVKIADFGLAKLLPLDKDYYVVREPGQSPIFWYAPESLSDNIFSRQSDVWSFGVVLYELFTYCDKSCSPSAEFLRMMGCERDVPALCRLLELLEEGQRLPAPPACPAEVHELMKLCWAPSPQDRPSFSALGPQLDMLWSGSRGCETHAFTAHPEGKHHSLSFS
Kind of series: Inhibition of recombinant human GST-tagged JAK3 catalytic domain (781 to 1124 residues) expressed in baculovirus expression system using tyrosine-6 peptide as substrate preincubated for 1 hr in presence of ATP by Z'-LYTE assay.

A short description of series [3]: In vivo inhibition of CD69 expression in po dosed mouse. Format: functional.
For series [4], the target named is Epidermal growth factor receptor (Homo sapiens, UniProt P00533). The series can be described thus: Inhibition of EGFR phosphorylation in human A431 cells. Format: cell-based.
In series [5] the test system is Blood. Kind of series: Inhibition of mouse anti-human anti-IgD-stimulated CD86 cell surface expression in human whole blood preincubated for 2 hrs followed by anti-human anti-IgD stimulation for 18 hrs by flow cytometric analysis. Format: functional, tissue-based.
A short description of series [6]: Inhibition of goat anti-human IgM F(ab')-stimulated CD86 cell surface expression in human PBMC preincubated for 2 hrs followed by anti-human IgM stimulation for 18 hrs by flow cytometric analysis. The series is classed as functional, tissue-based.
The target in series [7] is EGFR (phosphorylation) (Homo sapiens, UniProt P00533). Kind of series: Inhibition of EGFR phosphorylation in human A431 cells at 10000 nM relative to control. The series is classed as cell-based.

The term EC50 denotes the midpoint of the concentration-response curve. Broadly, the IC50 is the point on the concentration scale where inhibition reaches its midpoint. In general, ED50 refers to the dose that gives a 50% effect, or the effect in half of the subjects. One may read the inhibition as the share of the control response that was lost under treatment. Low readings indicate a response near the control, high ones a response far below the control.

Sequence of Epidermal growth factor receptor (P00533 whole entry): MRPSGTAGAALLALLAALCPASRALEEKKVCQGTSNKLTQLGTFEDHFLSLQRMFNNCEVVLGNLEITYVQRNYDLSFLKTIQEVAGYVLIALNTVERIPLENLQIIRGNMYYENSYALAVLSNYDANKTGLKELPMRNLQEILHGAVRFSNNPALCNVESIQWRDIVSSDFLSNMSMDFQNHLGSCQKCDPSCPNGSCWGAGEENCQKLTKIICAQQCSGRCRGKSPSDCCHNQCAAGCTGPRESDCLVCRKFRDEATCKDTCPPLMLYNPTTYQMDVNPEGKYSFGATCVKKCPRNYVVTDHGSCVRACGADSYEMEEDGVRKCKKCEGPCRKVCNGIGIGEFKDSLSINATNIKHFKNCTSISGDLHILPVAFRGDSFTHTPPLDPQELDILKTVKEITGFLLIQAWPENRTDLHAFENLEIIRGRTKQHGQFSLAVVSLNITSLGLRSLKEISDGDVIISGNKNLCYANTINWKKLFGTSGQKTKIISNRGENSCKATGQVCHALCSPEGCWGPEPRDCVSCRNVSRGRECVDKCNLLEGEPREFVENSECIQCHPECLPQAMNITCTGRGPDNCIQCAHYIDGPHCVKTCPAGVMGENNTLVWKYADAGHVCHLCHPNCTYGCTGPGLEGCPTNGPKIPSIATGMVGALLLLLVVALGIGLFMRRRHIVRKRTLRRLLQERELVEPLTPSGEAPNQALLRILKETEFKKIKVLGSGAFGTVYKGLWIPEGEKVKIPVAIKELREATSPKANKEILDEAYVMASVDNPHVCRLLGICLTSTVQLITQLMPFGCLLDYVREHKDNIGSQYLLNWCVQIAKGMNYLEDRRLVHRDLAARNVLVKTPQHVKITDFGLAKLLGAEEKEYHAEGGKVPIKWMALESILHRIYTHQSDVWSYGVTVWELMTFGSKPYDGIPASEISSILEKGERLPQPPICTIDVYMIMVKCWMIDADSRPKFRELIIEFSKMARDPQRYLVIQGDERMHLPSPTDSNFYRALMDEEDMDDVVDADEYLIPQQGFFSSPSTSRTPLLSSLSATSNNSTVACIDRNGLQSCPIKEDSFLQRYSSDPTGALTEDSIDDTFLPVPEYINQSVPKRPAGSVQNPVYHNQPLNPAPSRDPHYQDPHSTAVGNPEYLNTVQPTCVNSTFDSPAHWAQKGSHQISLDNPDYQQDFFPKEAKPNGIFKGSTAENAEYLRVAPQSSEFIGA
Sequence of EGFR (phosphorylation) (P00533 whole entry): as above

As for `COc1cc2nccc(Oc3ccc(C(=O)Nc4ccccn4)cc3)c2cc1NC(=O)C#CCCN1CCOCC1`, the figures for the EC50 in series [1] and in series [4] were 1.8 nM and > 1000 nM, respectively. In addition, in series [2], the IC50 is 174 nM. This compound came in with an ED50 in series [3] of 13 mg/kg.
For the compound `C=CC(=O)Nc1ccc2nccc(Oc3ccc(C(=O)Nc4cc(CC)ccn4)cc3)c2c1`, the concentration giving a half-maximal response (EC50) in series [1] is 15 nM; in series [5], 267 nM; in series [6] it was 21 nM. Further, the IC50 in series [2] stood at 838 nM. The inhibition at 10 µM in series [7] was determined as 36%.
With `CC#CC(=O)Nc1cc2c(Oc3ccc(C(=O)Nc4ccccn4)cc3)ccnc2cc1OCCN1CCOCC1`, the EC50 was 4.1 nM in series [1] and > 1000 nM in series [4]. Besides, the IC50 in series [2] is > 1000 nM.
